Measured values from EP0216105A1, “Diazaphosphorines, process for their preparation and their use as pesticide” (priority 1985, dated 1987).

Assays:
[1] = test system: Raupe (L5) der Art Spodoptera frugiperda; assay: Spodoptera test (treated artificial diet discs); type: in vivo; conditions: Spodoptera frugiperda caterpillars (L5) on treated artificial diet; compared with the prior art; figures not given
From the text: (§1) • Lösungsmittel: 3 Gewichtsteile Aceton • Emulgator: 1 Gewichtsteil Alkylarylpolyglykolether
Zur Herstellung einer zweckmäßigen Wirkstoffzubereitung vermischt man 1 Gewichtsteil Wirkstoff mit der angegebenen Menge Lösungsmittel und der angegebenen Menge Emulgator und verdünnt das Konzentrat mit Wasser auf die gewünschte Konzentrationen.
Kunstfutterscheiben, die in Plastikdosen liegen, werden durch Beträufeln mit der Wirkstoffzubereitung der gewünschten Konzentration behandelt. Nach Eindringen der Lösung besetzt man die Plastikdosen mit je 1 Raupe (L5) der Art Spodoptera frugiperda, wobei je Versuchsglied 5 Wiederholungen aufgestellt werden. Nach der Verpuppung legt man die Tiere eines Versuchsglieds in eine größere Dose. Nach der gewünschten Zeit wird die Abtötung in % bestimmt. Dabei bedeutet 100 X, daß alle Tiere abgetötet wurden; 0 X bedeutet, daß keine Tiere abgetötet wurden.

[2] = test system: Mückenlarven (L4) (Aedes aegypti); assay: Aedes test (larvae in aqueous preparation); type: in vivo; conditions: 20 Aedes aegypti larvae (L4) per glass; compared with the prior art; figures not given
From the text: • Löcungcmittal: 3 Gewichtsteile Aceton • Emulgator: 1 Gewichtsteil Alkylarylpolyglykolether
Zur Herstellung einer zweckmäßigen Wirkstoffzubereitung vermischt man 1 Gawichtcteil Wirkstoff mit der angegebenen Menge Löcungcmittel und der angegebenen Menge Emulgator und verdünnt das Konzentrat mit Wasser auf die gewünschte Konzentrationen.
Man füllt die wässrigen Wirkctoffzubereitungen in Gläser und setzt anschließend 20 Mückenlarven (L4) (Aedes aegypti) in jedes Glas ein.
Nach der gewünschten Zeit wird die Abtötung in % bestimmt. Dabei bedeutet 100 X, daß alle Tiere abgetötet wurden; 0 % bedeutet, daß keine Tiere abgetötet wurden.

[3] = test system: Musca domestica-tmultiresistent) Maden; assay: Fly maggot development inhibition test; type: in vivo; conditions: Musca domestica maggots on treated filter paper, 14 days; compared with the prior art; figures not given
Method: Fliegenmaden-Entwicklungshommungstest Testtiere: Musca domestica-tmultiresistent) Maden Lösungsmittel: Aceton
2 Gewichtsteile Wirkstoff werden in 1 000 Volumenteilen Lösungsmittel aufgenommen. Die so erhaltene Lösung wird mit weiteren Lösungsmitteln auf die gewünschten Konzentrationen verdünnt.
2,5 ml Wirkstofflösung werden in eine Petrischale pipettiert. Auf dem Boden der Petrischale befindet sich ein Filterpapier mit einem Durchmesser von etwa 9,5 cm. Die Petrischale bleibt so lange offen stehen, bis das Lösungsmittel vollständig verdunstet ist. Je nach Konzentration der Wirkstofflösung ist die Menge Wirkstoff pro m^2 Filterpapier verschieden hoch. Anschließend gibt man etwa 25 Testtiere in die Petrischale und bedeckt sie mit einem Glasdeckel.
14 Tage nach Ansetzen der Versuche wird die Zahl der geschlüpften Fliegen kontrolliert. Bestimmt wird der X-Satz der Schlüpfhemmung im Vergleich zur unbehandelten Kontrolle.

Caenorhabditis elegans = assay: In vitro nematode test; conditions: Caenorhabditis elegans, 168 h, concentration at which reproduction is prevented; 7 days at 22°C; read-out: Dosis effectiva
Method: 10-^4 g Wirkstoff wurden in 1 ml Wasser oder 0,1 ml Dimethylsulfoxid (DMSO) gelöst. Diese Lösung wurde auf eine Replica-Platte gegeben. Dazu wurden 2 ml einer E-coli-Suspension gegeben, in der man 10-20 weibliche Tiere oder Larven von Caenorhabditis elegans in 0,5 ml M9 Pufferlösung gegeben hat. Die E-coli-Suspension wurde hergestellt indem man 300 ml einer Ubernachthalter eines Uracil-bedürftigen E-coli-Stammes mit 1,8 1 steriler M 9 Pufferlösung versetzte.
Der Versuchsansatz wurde 7 Tage bei 22°C inkubiert und danach ausgewertet. Es wurde bewertet inwieweit der Wirkstoff die Vermehrung beeinträchtigt und die Konzentration angegeben bei der die Vermehrung verhindert wird.

Strongyloides ratti = assay: In vivo nematode test, infected rats; design: species or system Ratten; conditions: dose at which 95% of the parasites were killed, oral by gavage on three consecutive days from day 7 after infection; for ED95: Strongyloides ratti, killed day 13, read-out: effektive Dosis
From the text: Experimentell mit Strongyloides ratti infizierte Ratten werden 7 Tage nach der Infektion an drei aufeinanderfolgenden Tagen oral mittels Schlundsonde behandelt. Die Tiere werden 13 Tage nach der Infektion getötet und die Zahl der Parasiten bestimmt. Es wird die […] angegeben, bei der 95% der Parasiten abgetötet wurden (effektive Dosis): […]

Haemonchus contortus = assay: In vivo nematode test, infected sheep (egg count in faeces); design: species or system Schafe; conditions: sheep infected with normally sensitive or benzimidazole-resistant Haemonchus contortus, oral, pure active substance in gelatin capsules, worm egg count before and after treatment; for minimal effective dose: read-out: Dosis effectiva
From the text: Haemonchus contortus 1 Schaf
Experimentell mit normal empfindlichen bzw. mit gegen Benzimidazol-Anthelmintika resistenten Haemonchus contortus infizierte Schafe wurden nach Ablauf der Präpatenzzeit des Parasiten behandelt. Die Wirkstoffe wurden als reiner Wirkstoff in Gelatinkapseln oral appliziert.
Der Wirkungsgrad wird dadurch bestimmt, daß man die mit dem Kot ausgeschiedenen Wurmeier vor und nach der Behandlung quantitativ auszählt.
Ein völliges Sistieren der Eiausscheidung nach der Behandlung bedeutet, daß die Würmer abgetrieben wurden oder so geschädigt sind, daß sie keine Eier mehr produzieren.

Hymenolepis nana = assay: In vivo nematode test, infected mice; design: species or system Mäuse; conditions: Rodentolepis nana, dose at which 95% of the parasites were killed, oral by gavage on four consecutive days from day 10 after infection, killed day 17, read-out: effektive Dosis
From the text: Experimentell mit Hymenolepis nana infizierte Mäuse werden 10 Tage nach der Infektion an vier aufeinanderfolgenden Tagen oral mittels Schlundsonde behandelt. Die Tiere werden 17 Tage nach Infektion getötet und die Zahl der Parasiten bestimmt. Es wird die Wirkstoffkonzentration angegeben, bei der 95% der Parasiten abgetötet wurden (effektive Dosis): […]

Heterakis spumosa = assay: In vivo nematode test, infected mice; design: species or system Mäuse; conditions: Ganguleterakis spumosa, dose at which 95% of the parasites were killed, oral by gavage on four consecutive days from day 32 after infection, killed day 39, read-out: effektive Dosis
From the text: Experimentell mit Heterakis spumosa infizierte Mäuse werden 32 Tage nach der Infektion an vier aufeinanderfolgenden Tage oral mittels Schlundsonde behandelt. Die Tiere werden 39 Tage nach der Infektion getötet und die Zahl der Parasiten bestimmt. Es wird die Wirkstoffkonzentration angegeben bei der 95% der Parasiten abgetötet wurden (effektive Dosis): […]

[4] = test system: Lucilia cuprina res.-Larven; assay: Test with resistant Lucilia cuprina larvae; type: in vivo; conditions: horse meat, after 24 hours, compared with the prior art, figures not given
From the text: Test mit Lucilia cuprina resistent-Larven
• Emulgator: 35 Gewichtsteile Ethylenglykolmonomethylether • 35 Gewichtsteile Nonylphenolpolyglykolether
Zur Herstellung einer zweckmäßigen Wirkstoffzubereitung vermischt man drei Gewichtsteile Wirkstoff mit sieben Gewichtsteilen des oben angegebenen Gemisches und verdünnt das so erhaltene Konzentrat mit Wasser auf die jeweils gewünschte Konzentration.
Etwa 20 Lucilia cuprina res.-Larven werden in ein Teströhrchen gebracht, welches ca. 1 cm^3 Pferdefleisch und O,5 ml der Wirkstoffzubereitung enthält. Nach 24 Stunden wird der Abtötungsgrad bestimmt.

[5] = test system: Larven (L3) des Meerrettichkäfers (Phaedon cochleariae); assay: Phaedon larvae test (treated cabbage leaves); type: in vivo; conditions: Phaedon cochleariae larvae (L3) on treated Brassica oleracea leaves; compared with the prior art; figures not given
From the text: as §1
Zur Herstellung einer zweckmäßigen Wirkstoffzubereitung vermischt man 1 Gewichtsteil Wirkstoff mit der angegebenen Menge Lösungsmittel und der angegebenen Menge Emulgator und verdünnt das.Konzentrat mit Wasser auf die gewünschte Konzentration.
Kohlpflanzen (Brassica oleracea) werden mit der Wirkstoffzubereitung der gewünschten Konzentration behandelt. Ein Blatt der behandelten Pflanze wird in eine Plastikdose gelegt und mit Larven (L3) des Meerrettichkäfers (Phaedon cochleariae) besetzt. Nach 2 und 4 Tagen wird jeweils ein weiters Blatt von derselben Pflanze für die Nachfütterung verwendet.
Nach der gewünschten Zeit wird die Abtötung in % bestimmt. Dabei bedeutet 100 X, daß alle Käferlarven abgetötet wurden.

SMILES: CN1C(=O)C(C(=O)Nc2ccc(OC(F)(F)F)cc2)C(=O)N(C)P1(=S)Oc1ccccc1 (stereo not shown) [Beispiel 7]
- Abtötung in % [1]: überlegene Wirksamkeit gegenüber dem Stand der Technik
- Abtötung in % [2]: überlegene Wirksamkeit gegenüber dem Stand der Technik
- X-Satz der Schlüpfhemmung im Vergleich zur unbehandelten Kontrolle [3]: überlegene Wirksamkeit gegenüber dem Stand der Technik
- minimal effective concentration (Caenorhabditis elegans): 10 µg/mL
- ED95 (Strongyloides ratti): 50 mg/kg
- minimal effective dose (Haemonchus contortus): 50 mg/kg

SMILES: CN1C(=O)C(C(=O)Nc2ccc(Cl)c(C(F)(F)F)c2)C(=O)N(C)P1(=O)Oc1ccc(Cl)cc1 (stereo not shown) [Beispiel 9]
- Abtötung in % [1]: überlegene Wirksamkeit gegenüber dem Stand der Technik
- Abtötung in % [2]: überlegene Wirksamkeit gegenüber dem Stand der Technik
- minimal effective concentration (Caenorhabditis elegans): 10 µg/mL
- ED95 (Strongyloides ratti): 25 mg/kg
- ED95 (Hymenolepis nana): 50 mg/kg
- ED95 (Heterakis spumosa): 25 mg/kg
- minimal effective dose (Haemonchus contortus): 25 mg/kg

SMILES: CCN1C(=O)C(C(=O)Nc2ccc(Oc3cccc(C(F)(F)F)c3)cc2)C(=O)N(C)P1(=O)Oc1cccc(Cl)c1 (stereo not shown) [Beispiel 47]
- minimal effective dose (Haemonchus contortus): 10 mg/kg

SMILES: CN1C(=O)C(C(=O)Nc2ccc(Oc3ccc(C(F)(F)F)cc3)cc2)C(=O)N(C)P1(=O)Oc1ccc(Cl)cc1 (stereo not shown) [Beispiel 3]
- minimal effective dose (Haemonchus contortus): 50 mg/kg

SMILES: CN1C(=O)C(C(=O)Nc2ccc(SC(F)(F)F)cc2)C(=O)N(C)P1(=O)Oc1ccc(Cl)cc1 (stereo not shown) [Beispiel 24]
- Abtötung in % [1]: überlegene Wirksamkeit gegenüber dem Stand der Technik
- X-Satz der Schlüpfhemmung im Vergleich zur unbehandelten Kontrolle [3]: überlegene Wirksamkeit gegenüber dem Stand der Technik
- Abtötungsgrad [4]: überlegene Wirkung gegenüber dem Stand der Technik
- minimal effective concentration (Caenorhabditis elegans): 10 µg/mL
- ED95 (Strongyloides ratti): 10 mg/kg
- minimal effective dose (Haemonchus contortus): 10 mg/kg

SMILES: CN1C(=O)C(C(=O)Nc2ccc(Cl)c(C(F)(F)F)c2)C(=O)N(C)P1(=O)Oc1ccc(Cl)cc1 (stereo not shown) [Beispiel 25]
- Abtötung in % [5]: überlegene Wirksamkeit gegenüber dem Stand der Technik
- X-Satz der Schlüpfhemmung im Vergleich zur unbehandelten Kontrolle [3]: überlegene Wirksamkeit gegenüber dem Stand der Technik
- Abtötungsgrad [4]: überlegene Wirkung gegenüber dem Stand der Technik
- effektive Dosis (Strongyloides ratti; killed day 13): 25 mg/kg
- Dosis effectiva (Haemonchus contortus): 25 mg/kg

SMILES: CN1C(=O)C(C(=O)Nc2ccc(Cl)c(C(F)(F)F)c2)C(=O)N(C)P1(=O)Oc1ccccc1 (stereo not shown) [Beispiel 12]
- Abtötung in % [5]: überlegene Wirksamkeit gegenüber dem Stand der Technik
- Abtötung in % [2]: überlegene Wirksamkeit gegenüber dem Stand der Technik
- minimal effective concentration (Caenorhabditis elegans): 10 µg/mL
- ED95 (Strongyloides ratti): 100 mg/kg
- ED95 (Heterakis spumosa): 25 mg/kg
